Results reported in patent US11926613B2, “Kinase inhibitors for the treatment of central and peripheral nervous system disorders” (UNIVERSITY OF MIAMI, priority 2017, dated 2024).

How the values were obtained:
[1] = system: primary CNS neurons; assay: Neurite outgrowth in primary CNS neurons (FIG. 1, FIG. 2); type: cell-based; settings: FIG. 2, combination of both inhibitors
[2] = system: corticospinal tract (CST) axons; assay: Unilateral pyramidotomy model, in vivo axon growth (CST axon sprouting); settings: mice, cortical injection, 2 mM final concentration, 5 weeks after unilateral pyramidotomy, N=2
From the text: B) Graph represents averages of sprouting axon index across two animals treated with indicated compounds. Error bars indicate range of data points. N=2 animals (mice).
To assess the role of the compounds described herein in axon growth in vivo, the unilateral pyramidotomy model was employed, in which the pyramid in the ventral brainstem was severed unilaterally, rostral to the decussation of corticospinal tract (CST) axons. The animals then received bilateral cortical injections of a compound described herein (or DMSO) mixed 1:1 with AAV8-UbC-GFP or AAV8-UbC-TdTomato (5×10^13 GC/mL) for a final concentration of 2 mM (2 animals (mice) for each condition). […] Axon growth in the cervical spinal cord was assessed after 5 weeks. Cervical sections of the spinal cord were stained with antibodies against PKCγ (to assess completeness of lesion), and GFP (to amplify the signal from the virus). For analyses, GFP+ axons sprouting into the denervated gray matter were counted at 0, 500, 1000 μm lateral to the central canal, and normalized to the number of GFP+ fibers at the level of the brainstem (sprouting axon index).

[3] = system: Primary Neurons; assay: HCS neurite outgrowth assay (High Content Screening with Primary Neurons); type: cell-based
[4] = system: neurons from hippocampi of E18 rat embryos; assay: Neurite growth length (% NTL) in cultured E18 rat hippocampal neurons, 9-point dose response, 48 hours; type: cell-based
Procedure, shortened: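 Dissociated E18 rat hippocampal neurons at 1500 cells/well on PDL were exposed 48 h to 9 concentrations from 20 μM down to 0.078125 μM. After PFA fixation and βIII-tubulin/Hoechst staining, ArrayScan imaging traced neurites in at least 200–300 neurons per condition to give % NTL.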

Structure (SMILES)	neurite outgrowth, ROCK inhibitor and S6K inhibitor combined [1]	CST axon sprouting (sprouting axon index) [2]	CST axon sprouting (sprouting axon index) ([2]; listed as A-16)	EC50 [3] [µM]	neurite growth length (% NTL) ([4]; 156 nM)	neurite growth length (% NTL) ([4]; 312 nM)	neurite growth length (% NTL) ([4]; 625 nM)	neurite growth length (% NTL) ([4]; 1.25 μM)	neurite growth length (% NTL) ([4]; 2.5 μM)	neurite growth length (% NTL) ([4]; 5 μM)	neurite growth length (% NTL) ([4]; 10 μM)	neurite growth length (% NTL) ([4]; 20 μM)	activity at 0.078 µM ([4]; Rattus norvegicus, Neuron, 48 h, 78 nM) [%]
CCc1cncnc1N1CCN(Cc2nc3ccc(C(F)(F)F)cc3[nH]2)CC1 [PF-4708761]	synergistically promotes neurite outgrowth	–	–	–	–	–	–	–	–	–	–	–	–
Cc1cncc2cccc(S(=O)(=O)N3CCCNC[C@@H]3C)c12 [Example H-1152]	synergistically promotes neurite outgrowth	–	–	–	–	–	–	–	–	–	–	–	–
COc1ccc(O)c(C(=O)c2ccc(C(=O)N[C@@H]3CNC[C@H]3NC(=O)c3ccncc3)cc2)c1F [Example A16, N-[(3R,4R)-4-[4-(2-fluoro-6-hydroxy-3-methoxybenzoyl)benzamido]pyrrolidin-3-yl]pyridine-4-carboxamide]	–	nearly a two-fold increase in sprouting	promotes CST axon sprouting in the spinal cord	5.5	117.55	125.17	144.99	167.31	228.24	403.74	573.73	660.88	117
